How the values were obtained:
in vitro [1] = conditions: rat, microsomes, pH 7.4
PDE10A (human) = target: T1, PDE10A (human) (Homo sapiens, UniProt Q9Y233); assay: Measurement of PDE activity (HTRF cAMP kit), human PDE10A; type: biochemical; conditions: PDE enzymatic reaction, substrate 20 nM for PDE10, 60 minutes at 29 C
T1 construct: purchased BPS Bioscience
Outline: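 Recombinant human PDE10A (10–250 pM range across PDEs) with 20 nM cAMP substrate in 20 mM Tris-HCl pH 7.5, 10 mM MgCl2, 0.1% BSA, compound pre-mixed with enzyme. Ran 60 min at 29 °C. Remaining cAMP read by HTRF, converted to % of uninhibited activity, and IC50 fitted.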

in vitro [2] = conditions: human, microsomes, pH 7.4
catalepsy in rats = conditions: cited from earlier work
[3] = after systemic administration; cited from earlier work
[4] = system: hyperactivity in rats induced by PCP; conditions: cited from earlier work
[5] = system: amphetamine-induced hyperactivity; conditions: rat, in vivo; cited from earlier work

T1 sequence (Q9Y233 whole entry): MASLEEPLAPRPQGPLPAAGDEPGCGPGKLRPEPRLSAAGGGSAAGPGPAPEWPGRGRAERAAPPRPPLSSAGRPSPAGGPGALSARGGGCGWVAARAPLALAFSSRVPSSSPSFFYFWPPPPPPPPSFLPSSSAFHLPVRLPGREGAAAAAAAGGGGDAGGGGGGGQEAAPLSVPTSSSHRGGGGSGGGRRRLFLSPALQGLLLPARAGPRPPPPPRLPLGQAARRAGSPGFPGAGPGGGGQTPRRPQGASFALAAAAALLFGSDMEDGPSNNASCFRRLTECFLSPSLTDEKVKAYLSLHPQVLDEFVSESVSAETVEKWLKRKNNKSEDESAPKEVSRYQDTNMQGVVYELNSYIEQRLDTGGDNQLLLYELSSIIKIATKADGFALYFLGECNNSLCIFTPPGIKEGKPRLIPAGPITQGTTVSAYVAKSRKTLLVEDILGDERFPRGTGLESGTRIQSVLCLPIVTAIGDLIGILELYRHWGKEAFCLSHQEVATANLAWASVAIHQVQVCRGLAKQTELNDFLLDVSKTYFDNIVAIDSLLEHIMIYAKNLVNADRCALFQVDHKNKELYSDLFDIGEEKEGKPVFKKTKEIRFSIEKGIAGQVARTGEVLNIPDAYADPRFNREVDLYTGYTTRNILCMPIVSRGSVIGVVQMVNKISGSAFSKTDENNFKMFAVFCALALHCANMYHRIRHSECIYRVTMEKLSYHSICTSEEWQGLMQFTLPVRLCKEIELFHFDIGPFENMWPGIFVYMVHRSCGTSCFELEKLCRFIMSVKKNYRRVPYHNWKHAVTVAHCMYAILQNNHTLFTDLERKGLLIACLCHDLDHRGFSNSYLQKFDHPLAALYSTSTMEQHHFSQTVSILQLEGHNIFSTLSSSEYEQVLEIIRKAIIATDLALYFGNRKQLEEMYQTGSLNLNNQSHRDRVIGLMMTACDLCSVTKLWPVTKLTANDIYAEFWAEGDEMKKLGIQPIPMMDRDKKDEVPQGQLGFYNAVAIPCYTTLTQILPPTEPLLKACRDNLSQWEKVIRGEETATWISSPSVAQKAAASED

Compound | microsomal CLint at 0.5 μM (in vitro [1]) [µL/min/mg] | IC50 (PDE10A (human)) [nM] | microsomal CLint at 0.5 μM (in vitro [2]) [µL/min/mg] | catalepsy on its own (catalepsy in rats; papaverine alone) | cataleptic effect of the D2 receptor antagonist haloperidol (catalepsy in rats; together with haloperidol) | exposure half-life [3] | hyperactivity induced by PCP [4] | reduction of amphetamine-induced hyperactivity [5]
O=C1c2c(cccc2N2C3CCC2CNC3)CN1CCc1ccc2ccccc2n1 [Example 103, 7-(3,8-Diaza-bicyclo[3.2.1]oct-8-yl)-2-(2-quinolin-2-yl-ethyl)-2,3-dihydro-isoindol-1-one] | < 100 | 200 to 500 | < 100 |  |  |  |  | 
COc1ccc(Cc2nccc3cc(OC)c(OC)cc23)cc1OC [Papaverine, papaverine] |  |  |  | did not cause catalepsy on its own | potentiated the cataleptic effect | very short | reduced hyperactivity | insignificant
